From PubChem BioAssay (NCI)
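Dose response: 5 concentrations. Exposure: 48 h. Format: 96-well plates. Endpoint: linear interpolation; highest concentration if not reached. At the TGI there is no net growth.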

Legend:
Assay in all cases: NCI anticancer screen, dose series, 48 h
[1] = system: OVCAR-4 ovarian
[2] = system: EKVX NSCLC
[3] = system: HL-60(TB) leukemia
[4] = system: RXF 393 renal
[5] = system: UACC-62 melanoma
[6] = system: MCF7 breast
[7] = system: NCI/ADR-RES ovarian
[8] = system: MOLT-4 leukemia
[9] = system: SR leukemia
[10] = system: UO-31 renal
[11] = system: HCT-116 colon

SMILES	TGI [1] [µM]	TGI [2] [µM]	TGI [3] [µM]	TGI [4] [µM]	TGI [5] [µM]	TGI [6] [µM]	TGI [7] [µM]	TGI [8] [µM]	TGI [9] [µM]	TGI [10] [µM]	TGI [11] [µM]
Cc1ccc(/C(Cl)=C/C=C(C#N)C#N)cc1	8.74	27.5	36.9	7.66	15.7	> 100	4.48	> 100	7.47	> 100	–
O=C1c2ccccc2C(=O)c2c1cc(S(=O)(=O)O)c(O)c2O	> 100	> 100	–	> 100	> 100	–	–	> 100	> 100	> 100	> 100
O=c1cc(N2CCNCC2)nc2ccccn12	–	> 100	> 100	> 100	> 100	> 100	> 100	> 100	–	> 100	> 100
NCCCCC(NC(=O)C(N)Cc1ccc(O)cn1)C(=O)O (stereo not drawn)	> 100	> 100	> 100	> 100	–	> 100	> 100	> 100	> 100	> 100	> 100
COc1ccc(C[C@@H](CO)NC2=C(C#N)CCC2)cc1	> 100	> 100	27.8	> 100	> 100	> 100	> 100	> 100	–	> 100	> 100
C[C@]12CC[C@H](OC(=O)Cc3ccc(N(CCCl)CCCl)cc3)CC1=CC[C@@H]1[C@@H]2CC[C@]2(C)C(=O)CC[C@@H]12	–	> 100	> 100	> 100	–	> 100	> 100	> 100	> 100	> 100	–
CC(CCC(=O)O)(c1ccc(O)cc1)c1ccc(O)cc1	> 100	> 100	–	> 100	> 100	–	> 100	> 100	> 100	> 100	> 100
COC(=O)c1cc(C)ccc1C1CN=NC12Cc1ccc(C)cc1C2=O (stereo not drawn)	> 100	> 100	37.5	> 100	> 100	85.8	> 100	80.6	–	> 100	> 100
Nc1nc(Cl)c(CO)c(NCC2(CO)CC(CCc3ccccc3)C2)n1 (stereo not drawn)	54.9	> 100	28.9	63	–	45.5	73.8	14.7	> 100	68.8	31.9
O=P1(O)c2ccccc2CCc2ccccc21	–	> 100	–	> 100	> 100	> 100	–	> 100	–	> 100	> 100
COc1ccc(/C=C2\CCC(C)C3C2=NN(c2ccccc2)C3c2ccc(OC)c(OC)c2)cc1OC (stereo not drawn)	–	6.9	7.07	16.3	12.2	21.8	18.3	11	–	22.1	5.5
CC(C)(C)C(=O)OCOP(=O)(OCOC(=O)C(C)(C)C)OCC1OC(n2ccc(=O)[nH]c2=O)C(N=[N+]=[N-])C1O (stereo not drawn)	14	20.6	4.84	7.07	14.6	14.7	23.5	31.4	–	4.58	12
O=C(Cn1c2c(c3ccccc31)CCCC2)N1CCCC1	73.3	> 100	> 100	–	> 100	> 100	> 100	–	> 100	> 100	> 100
O=S(=O)(O)C1=C2Sc3ccccc3N=C2c2ccccc2C1	33.8	32	21.2	35.1	26.4	–	–	29.1	20.6	33.6	28.5
O=S(=O)(SC1=NCCN1)c1ccc2ccccc2c1	> 100	> 100	38.4	> 100	> 100	> 100	51.8	56.8	–	> 100	62.4
COC(=O)c1cc2c(cc1CC1Cc3cc4c(cc3C1=O)CCC4)CCC2 (stereo not drawn)	> 100	> 100	> 100	–	> 100	> 100	> 100	57.5	> 100	> 100	> 100
[Cl-].[Rh+3].c1cnc2c(c1)ccc1cccnc12.c1cnc2c(c1)ccc1cccnc12.c1cnc2c(c1)ccc1cccnc12	> 100	> 100	> 100	–	> 100	–	–	> 100	> 100	> 100	> 100
CC(C)(C)/C(=N\Nc1nc2ccccc2[nH]1)c1ccccn1	> 100	–	–	> 100	> 100	67.2	> 100	> 100	> 100	> 100	78
O=C(N/N=C/C=C/c1ccccc1)[C@H](O)[C@@H](O)C(=O)N/N=C/C=C/c1ccccc1	–	> 100	> 100	> 100	> 100	–	–	> 100	> 100	> 100	> 100
O=C1CSSCC(=O)Nc2ccccc2N1	> 100	> 100	> 100	> 100	> 100	–	> 100	> 100	> 100	> 100	> 100
Cc1ccc([N+](=O)[O-])cc1S(=O)(=O)Nc1ccc(C2=NN(c3ccc([N+](=O)[O-])cc3[N+](=O)[O-])C(c3cccs3)C2)cc1 (stereo not drawn)	77.3	59.2	62.9	54.3	–	80.1	41.4	53.3	58.6	> 100	29.3
Nc1nc(I)nc2c1ncn2C1OC(COS(N)(=O)=O)C(O)C1O (stereo not drawn)	< 0.0158	0.0573	–	0.0441	0.0606	0.207	< 0.0125	0.0416	< 0.01	0.0653	0.0534
O=c1oc2ccccc2cc1-c1csc(Nc2ccc(F)cc2)n1	> 36	8.63	35.3	28.2	43.9	15.5	13	> 25.4	–	6.42	5.65
